Test results as given in US20180282275A1, “New alkynyl-substituted 3-phenylpyrrolidine-2,4-diones and use thereof as herbicides” (Bayer CropScience Aktiengesellschaft, priority 2015, published 2018).

Tests used:
Assay type in all cases: in vivo
Alopecurus myosuroides [1] = test: Pre-emergence herbicidal effect, greenhouse pot test; details: 504 h, 320 g a.i./ha, visual score after 3 weeks, 100% = plants have died, 0% = like control, read-out: Herbicidal effect against [%] ALOMY
Source text: (§1) Seeds of monocotyledonous and dicotyledonous weed plants and crop plants are laid out in wood-fibre pots in sandy loam and covered with soil. The compounds according to the invention formulated in the form of wettable powders (WP) or as emulsion concentrates (EC) are then applied as aqueous suspension or emulsion at a water application rate of 600 to 800 l/ha (converted) with the addition of 0.2% wetting agent to the surface of the covering soil. After the treatment, the pots are placed in a greenhouse and kept under good growth conditions for the trial plants. The damage to the test plants is scored visually after a test period of 3 weeks by comparison with untreated controls (herbicidal activity in percent (%): 100% activity=the plants have died, 0% activity=like control plants). [table]

Setaria viridis [2] = test: as above; details: 504 h, 320 g a.i./ha, visual score after 3 weeks, 100% = plants have died, 0% = like control, read-out: Herbicidal effect against [%] SETVI
Source text: as §1

Avena fatua [3] = test: as above; details: 504 h, 320 g a.i./ha, visual score after 3 weeks, 100% = plants have died, 0% = like control, read-out: Herbicidal effect against [%] AVEFA
Source text: as §1

Echinochloa crus-galli [4] = test: as above; details: 504 h, 320 g a.i./ha, visual score after 3 weeks, 100% = plants have died, 0% = like control, read-out: Herbicidal effect against [%] ECHCG
Source text: as §1

Hordeum murinum [5] = test: as above; details: 320 g a.i./ha, visual score after 3 weeks, 100% = plants have died, 0% = like control
Source text: as §1

Lolium rigidium [6] = test: as above; details: 320 g a.i./ha, visual score after 3 weeks, 100% = plants have died, 0% = like control
Source text: as §1

Cyperus esculentus = test: as above; details: 320 g a.i./ha, visual score after 3 weeks, 100% = plants have died, 0% = like control
Source text: as §1

Alopecurus myosuroides [7] = test: Post-emergence herbicidal effect, greenhouse pot test; details: 504 h, 80 g a.i./ha, one-leaf stage, visual score after about 3 weeks, 100% = plants have died, read-out: Herbicidal effect against [%] ALOMY
Experimental: (§2) [table] Seeds of monocotyledonous and dicotyledonous weed and crop plants are laid out in sandy loam in wood-fibre pots, covered with soil and cultivated in a greenhouse under good growth conditions. 2 to 3 weeks after sowing, the test plants are treated at the one-leaf stage. The compounds according to the invention, formulated in the form of wettable powders (WP) or as emulsion concentrates (EC), are then sprayed as aqueous suspension or emulsion at a water application rate of 600 to 800 l/ha (converted) with the addition of 0.2% of wetting agent onto the green parts of the plants. After the test plants have been left to stand in the greenhouse under optimal growth conditions for about 3 weeks, the action of the preparations is assessed visually in comparison to untreated controls (herbicidal action in percent (%): 100% activity=the plants have died, 0% activity=like control plants).

Setaria viridis [8] = test: as above; details: 504 h, 80 g a.i./ha, one-leaf stage, visual score after about 3 weeks, 100% = plants have died, read-out: Herbicidal effect against [%] SETVI
Experimental: as §2

Stellaria media = test: as above; details: 80 g a.i./ha, one-leaf stage, visual score after about 3 weeks, 100% = plants have died
Experimental: as §2

Avena fatua [9] = test: as above; details: 80 g a.i./ha, one-leaf stage, visual score after about 3 weeks, 100% = plants have died
Experimental: as §2

Echinochloa crus-galli [10] = test: as above; details: 504 h, 80 g a.i./ha, one-leaf stage, visual score after about 3 weeks, 100% = plants have died, read-out: Herbicidal effect against [%] ECHCG
Experimental: as §2

Hordeum murinum [11] = test: as above; details: 80 g a.i./ha, one-leaf stage, visual score after about 3 weeks, 100% = plants have died
Experimental: as §2

Lolium rigidium [12] = test: as above; details: 80 g a.i./ha, one-leaf stage, visual score after about 3 weeks, 100% = plants have died
Experimental: as §2

Lolium multiflorum = test: Pre-emergence herbicidal effect, greenhouse pot test; details: 320 g a.i./ha, visual score after 3 weeks, 100% = plants have died, 0% = like control
Source text: as §1

SMILES | pest or weed control at 320 g/ha (Alopecurus myosuroides [1]) [%] | pest or weed control at 320 g/ha (Setaria viridis [2]) [%] | pest or weed control at 320 g/ha (Avena fatua [3]) [%] | pest or weed control at 320 g/ha (Echinochloa crus-galli [4]) [%] | Herbicidal effect against [%] HORMU (Hordeum murinum [5]) [%] | Herbicidal effect against [%] LOLRI (Lolium rigidium [6]) [%] | Herbicidal effect against [%] CYPES (Cyperus esculentus) [%] | pest or weed control at 80 g/ha (Alopecurus myosuroides [7]) [%] | pest or weed control at 80 g/ha (Setaria viridis [8]) [%] | Herbicidal effect against [%] STEME (Stellaria media) [%] | Herbicidal effect against [%] AVEFA (Avena fatua [9]) [%] | pest or weed control at 80 g/ha (Echinochloa crus-galli [10]) [%] | Herbicidal effect against [%] HORMU (Hordeum murinum [11]) [%] | Herbicidal effect against [%] LOLRI (Lolium rigidium [12]) [%] | Herbicidal effect against [%] LOLMU (Lolium multiflorum) [%]
CC#Cc1cc(C)c(C2=C(OC(=O)OCC)C3(CCC(OCC)CC3)NC2=O)c(C)c1 (single isomer, unassigned) [Example P5] | 80 to 100 | 80 to 100 | 80 to 100 | 80 to 100 | 100 | 100 | 100 | 80 to 100 | 80 to 100 | 100 | 100 | 80 to 100 | 100 | 100 | 
CC#Cc1cc(C)c(C2=C(OC(=O)OCC)C3(CCC(OCC)CC3)NC2=O)c(C)c1 (single isomer, unassigned) [Example P6] |  |  |  |  | 90 | 100 | 90 |  |  | 20 | 90 |  | 80 | 100 | 
CC#Cc1cc(C)c(C2=C(O)C3(CCC(OCC)CC3)NC2=O)c(CC)c1 (stereo not shown) [Example D4] | 80 to 100 | 80 to 100 | 80 to 100 | 80 to 100 | 100 | 100 | 70 | 80 to 100 | 80 to 100 | 10 | 100 | 80 to 100 | 100 | 100 | 
CC#Cc1cc(C)c(C2=C(O)C3(CCC(OCC)CC3)NC2=O)c(C)c1 (stereo not shown) [Example D6] | 80 to 100 | 80 to 100 |  | 80 to 100 | 100 | 100 | 100 | 80 to 100 | 80 to 100 | 90 | 100 | 80 to 100 | 100 | 100 | 
CC#Cc1cc(C)c(C2=C(O)C3(CCC(OCC)CC3)NC2=O)c(C)c1 (stereo not shown) [Example D7] |  |  |  |  | 100 | 100 |  |  |  | 20 | 100 |  | 60 | 100 | 
CCc1cc(C#CC2CC2)cc(C)c1C1=C(O)C2(CCC(OC)CC2)NC1=O (stereo not shown) [Example D10] | 80 to 100 | 80 to 100 | 80 to 100 | 80 to 100 |  |  |  | 90 to 100 | 90 to 100 |  |  | 90 to 100 |  |  | 100
COC1CCC2(CC1)NC(=O)C(c1c(C)cc(C#CC3CC3)cc1C)=C2O (stereo not drawn) [Example D11, cis-3-[4-(Cyclopropylethynyl)-2,6-dimethylphenyl]-4-hydroxy-8-methoxy-1-azaspiro[4.5]dec-3-en-2-one] | 80 to 100 | 80 to 100 | 80 to 100 | 80 to 100 |  |  |  | 90 to 100 | 90 to 100 |  |  | 90 to 100 |  |  | 100
CC#Cc1cc(C)c(C2=C(OC(=O)OC)C3(CCC(OCC)CC3)NC2=O)c(C)c1 (stereo not shown) [Example P7] | 80 to 100 | 80 to 100 | 80 to 100 | 80 to 100 | 100 | 100 | 100 | 80 to 100 | 80 to 100 | 100 | 100 | 80 to 100 | 100 | 100 | 
CC#Cc1cc(C)c(C2=C(OC(=O)C(C)C)C3(CCC(OCC)CC3)NC2=O)c(C)c1 (stereo not shown) [Example P8] | 80 to 100 | 80 to 100 | 80 to 100 | 80 to 100 | 100 | 100 | 100 | 80 to 100 | 80 to 100 | 60 | 100 | 80 to 100 | 100 | 100 | 
CC#Cc1cc(C)c(C2=C(OC(=O)OCC)C3(CCC(OCC)CC3)NC2=O)c(CC)c1 (stereo not shown) [Example P9] |  |  |  |  | 100 | 100 | 60 |  |  | 40 | 100 |  | 100 | 100 | 
CC#Cc1cc(C)c(C2=C(OC(=O)OCC)C3(CCC(OCC)CC3)NC2=O)c(CC)c1 (stereo not shown) [Example P10] | 80 to 100 | 80 to 100 | 80 to 100 | 80 to 100 | 90 | 100 |  | 80 to 100 | 80 to 100 | 10 | 90 | 80 to 100 | 100 | 100 | 
CCOC(=O)OC1=C(c2c(C)cc(C#CC3CC3)cc2CC)C(=O)NC12CCC(OC)CC2 (stereo not shown) [Example P14] | 80 to 100 | 80 to 100 | 80 to 100 | 80 to 100 |  |  |  | 90 to 100 | 90 to 100 |  |  | 90 to 100 |  |  | 100
CCc1cc(C#CC2CC2)cc(C)c1C1=C(OC(=O)C(C)C)C2(CCC(OC)CC2)NC1=O (stereo not shown) [Example P15] | 80 to 100 | 80 to 100 | 80 to 100 | 80 to 100 |  |  |  | 90 to 100 | 90 to 100 |  |  | 90 to 100 |  |  | 100
CC#Cc1cc(C)c(C2=C(O)C3(CCC(OCC)CC3)NC2=O)c(C)c1 (stereo not shown) [Example S3] |  |  |  |  | 100 | 100 | 80 |  |  | 100 | 100 |  | 100 | 100 | 
CC#Cc1cc(C)c(C2=C(O)C3(CCC(OCC)CC3)NC2=O)c(CC)c1 (stereo not shown) [Example S4] |  |  |  |  | 100 | 100 | 60 |  |  | 10 | 100 |  | 100 | 100 | 
